{"source": "patent US7429482B2", "about": "“Screening tools for discovery of novel anabolic agents” (United States of America as represented by the Department …, priority 2005, dated 2008)", "test_system": "starved, cultured muscle cells", "assay": "Muscle breakdown in starved, cultured muscle cells", "assay_type": "cell-based", "data": [{"compound": "C[C@]12CC[C@H]3[C@@H](CCC4=CC(=O)CC[C@@]43C)[C@@H]1CC[C@@H]2O", "note": "[testosterone]", "values": [{"measurement": "muscle breakdown", "result": "reduced"}]}]}
